Results published in publication PMC8081376 (Mutagenesis, 2020).

Experiments:
[1] = tested on: bacterial reverse mutation test (Ames test) strains; details: cited from earlier work
[2] = tested on: Phenion®FT Skin Models (keratinocytes and fibroblasts); details: application of the dye to the skin; ref [95]; cited from earlier work
[3] = tested on: mammalian cells (V79, CHO, CHL, HuLy, TK6, HepG2); details: cited from earlier work
[4] = tested on: bone marrow, blood, liver, skin; details: cited from earlier work
[5] = tested on: rats and mice; details: rodent studies; topical for sodium xylene sulfonate; ref [65], [72], [82], [85]; cited from earlier work
[6] = tested on: Phenion®FT Skin Models
[7] = tested on: PRH, HepG2, CHO, TK6, CHL, MA-10 cells; details: TK6 cell line; ref [73]; cited from earlier work
[8] = tested on: Phenion®FT Skin Models (keratinocytes and fibroblasts)
[9] = tested on: mammalian cells (CHL, V79, CHO, HuLy); details: cited from earlier work

SMILES | Ames test [1] | RS Comet assay outcome in SCCS opinion [2] | Standard in vitro micronucleus test [3] | In vivo micronucleus test in mice [4] | Carcinogenicity [5] | Dose producing signs of strong cytotoxicity that limited the top dose [6] [µg/cm^2] | In vitro comet assay [7] | Call of statistical prediction models 1 and 2 [8] | Effect on % tail DNA / DNA migration in APC experiment [8] | Effect on % tail DNA / DNA migration in standard experiment [8] | Expert call of the performing laboratory in the coded phase [8] | RS Comet assay overall classification [8] | In vitro chromosomal aberration studies [9]
C[N+](C)(C)c1ccc2ccc(O)c(N=Nc3ccc(N)c([N+](=O)[O-])c3)c2c1.[Cl-] [Basic Brown 17] | positive findings | lack of DNA damaging properties | negative findings | – | – | – | – | – | – | – | – | – | –
O=CC=O [Glyoxal] | – | – | – | negative results | non-carcinogenic | 25 | positive response | positive | statistically significant increase in DNA migration was observed in keratinocytes at the highest dose tested | DNA migration was not increased in either cell type | negative | negative | clear positive results
